US20250171516A1, “PEPTIDE ACIDS AS A GLP1R AGONIST AND ANTIBODY-DRUG CONJUGATES THEREOF” (Regeneron Pharmaceuticals, Inc., priority 2023, published 2025)
Read-outs that look alike come from different tables or passages of the source. Starred links: 1 amine or outer side, 2 acyl side, 3 side chain; linkers in the order of their positions; H or OH if unused. Non-standard residues stand in square brackets, D forms with d. Residues, ends and D or L forms follow the SMILES beside them. Groups on a side chain read outwards from the residue. ξ: configuration not given here. *: point of attachment. X3 = CCc1cc(OCCCCn2cc(COCCOCCOCCOCCOCCOCCOCCOCCOCCOCCOCCOCCN)nn2)ccc1-c1ccc(C[C@H](N[*:1])C(=O)[*:2])cc1; X2 = CCc1cc(OCCCCn2cc(COCCOCCOCCOCCOCCOCCOCCOCCN[*:3])nn2)ccc1-c1ccc(C[C@H](N[*:1])C(=O)[*:2])cc1; X1 = CCc1cc(OCCCCn2cc(COCCOCCOCCOCCOCCOCCOCCOCCN)nn2)ccc1-c1ccc(C[C@H](N[*:1])C(=O)[*:2])cc1; Bip(2'-Et,4'-O(CH2)4N3) = CCc1cc(OCCCCN=[N+]=[N-])ccc1-c1ccc(C[C@H](N)C(=O)O)cc1; Bip(2'-Et,4'-O(CH2)4NH2) = CCc1cc(OCCCCN)ccc1-c1ccc(C[C@H](N)C(=O)O)cc1; Malonyl(2,2-Me2,histaminyl) = CC(C)(C(=O)NCCc1cnc[nH]1)C(=O)*; Nva(5-(3,5-Me2Ph)) = Cc1cc(C)cc(CCC[C@H](N)C(=O)O)c1; Ala(1H-tetrazol-5-yl) = N[C@@H](Cc1nnn[nH]1)C(=O)O; αMePhe(2-F) = C[C@](N)(Cc1ccccc1F)C(=O)O; γGlu = O=C(O)[C@H](CCC(=O)[*:2])N[*:1]; ξαMePhe(2-F) = CC(N)(Cc1ccccc1F)C(=O)O; tBu = CC(C)(C)*

Target: GLP-1R (Homo sapiens, UniProt P43220)
Sequence (P43220 24-463): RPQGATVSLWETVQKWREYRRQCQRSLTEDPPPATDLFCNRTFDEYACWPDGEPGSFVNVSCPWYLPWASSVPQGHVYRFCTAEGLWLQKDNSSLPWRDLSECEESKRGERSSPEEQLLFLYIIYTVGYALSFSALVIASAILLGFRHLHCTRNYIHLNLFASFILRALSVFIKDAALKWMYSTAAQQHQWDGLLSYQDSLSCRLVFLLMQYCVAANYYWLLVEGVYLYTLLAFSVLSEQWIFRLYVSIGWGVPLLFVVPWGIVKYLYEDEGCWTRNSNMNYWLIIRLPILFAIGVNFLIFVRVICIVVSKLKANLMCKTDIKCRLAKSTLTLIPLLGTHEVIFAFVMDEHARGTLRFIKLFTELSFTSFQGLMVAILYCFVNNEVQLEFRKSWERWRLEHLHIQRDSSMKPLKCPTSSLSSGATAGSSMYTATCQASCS
Assay: GLP-1R cAMP assay of peptides (Tables 10, 14, 15)
Type: cell-based
[1] = Table 10, read-out: GLP-1R CAMP EC50
[2] = Table 14, peptide amides, read-out: cAMP EC50
[3] = Table 15, peptide acids, read-out: cAMP EC50

| SMILES | GLP-1R CAMP Max (Table 10) [%] | EC50 [1] [nM] | EC50 [2] [nM] | other results |
| --- | --- | --- | --- | --- |
| CCc1cc(OCCCCn2cc(COCCOCCOCCOCCOCCOCCOCCOCCN)nn2)ccc1-c1ccc(C[C@H](NC(=O)[C@H](CC(=O)O)NC(=O)[C@H](CO)NC(=O)[C@@H](NC(=O)[C@](C)(Cc2ccccc2F)NC(=O)[C@@H](NC(=O)CNC(=O)[C@H](Cc2nnn[nH]2)NC(=O)C(C)(C)C(=O)NCCc2cnc[nH]2)[C@@H](C)O)[C@@H](C)O)C(N)=O)cc1 ({Malonyl(2,2-Me2,histaminyl)}-[Ala(1H-tetrazol-5-yl)]GT[αMePhe(2-F)]TSD[X1]-NH2) | 104.11 | 59.6 |  |  |
| CCc1cc(OCCCCn2cc(COCCOCCOCCOCCOCCOCCOCCOCCOCCOCCOCCOCCN)nn2)ccc1-c1ccc(C[C@H](NC(=O)[C@H](CC(=O)O)NC(=O)[C@H](CO)NC(=O)[C@@H](NC(=O)[C@](C)(Cc2ccccc2F)NC(=O)[C@@H](NC(=O)CNC(=O)[C@H](Cc2nn[nH]n2)NC(=O)C(C)(C)C(=O)NCCc2c[nH]cn2)[C@@H](C)O)[C@@H](C)O)C(=O)N[C@@H](CCCc2cc(C)cc(C)c2)C(N)=O)cc1 ({Malonyl(2,2-Me2,histaminyl)}-[Ala(1H-tetrazol-5-yl)]GT[αMePhe(2-F)]TSD[X3][Nva(5-(3,5-Me2Ph))]-NH2) |  |  | 1.89 |  |
| CCc1cc(OCCCCN=[N+]=[N-])ccc1-c1ccc(C[C@H](NC(=O)[C@H](CC(=O)O)NC(=O)[C@H](COC(C)(C)C)NC(=O)[C@@H](NC(=O)C(C)(Cc2ccccc2F)NC(=O)[C@@H](NC(=O)CNC(=O)[C@H](Cc2nnn[nH]2)NC(=O)C(C)(C)C(=O)NCCc2cnc[nH]2)[C@@H](C)O)[C@@H](C)O)C(=O)N[C@@H](CCCc2cc(C)cc(C)c2)C(=O)O)cc1 (stereo partly shown) ({Malonyl(2,2-Me2,histaminyl)}-[Ala(1H-tetrazol-5-yl)]GT[ξαMePhe(2-F)]TS(tBu)D[Bip(2'-Et,4'-O(CH2)4N3)][Nva(5-(3,5-Me2Ph))]-OH) | 122.44 | 2.94 |  |  |
| CCc1cc(OCCCCN=[N+]=[N-])ccc1-c1ccc(C[C@H](NC(=O)[C@H](CC(=O)O)NC(=O)[C@H](CO)NC(=O)[C@@H](NC(=O)C(C)(Cc2ccccc2F)NC(=O)[C@@H](NC(=O)CNC(=O)[C@H](Cc2nnn[nH]2)NC(=O)C(C)(C)C(=O)NCCc2cnc[nH]2)[C@@H](C)O)[C@@H](C)O)C(=O)O)cc1 (stereo partly shown) [AA10-AA9-AA8-AA7-AA6-AA5-AA4-AA3-AA2-OH] | 97.92 | 51.2 |  |  |
| C[C@@H](O)[C@H](NC(=O)CNC(=O)[C@H](Cc1nn[nH]n1)NC(=O)C(C)(C)C(=O)NCCc1cnc[nH]1)C(=O)N[C@@](C)(Cc1ccccc1F)C(=O)N[C@H](C(=O)N[C@@H](CO)C(=O)N[C@@H](CC(=O)O)C(=O)O)[C@@H](C)O [AA10-AA9-AA8-AA7-AA6-AA5-AA4-AA3-OH] | −0.25 | > 1000 |  |  |
| C[C@@H](O)[C@H](NC(=O)CNC(=O)[C@H](Cc1nn[nH]n1)NC(=O)C(C)(C)C(=O)NCCc1cnc[nH]1)C(=O)N[C@@](C)(Cc1ccccc1F)C(=O)N[C@H](C(=O)N[C@@H](CO)C(=O)O)[C@@H](C)O [AA10-AA9-AA8-AA7-AA6-AA5-AA4-OH] ({Malonyl(2,2-Me2,histaminyl)}-[Ala(1H-tetrazol-5-yl)]GT[αMePhe(2-F)]TS-OH) | −0.86 | > 1000 |  |  |
| C[C@@H](O)[C@H](NC(=O)[C@](C)(Cc1ccccc1F)NC(=O)[C@@H](NC(=O)CNC(=O)[C@H](Cc1nn[nH]n1)NC(=O)C(C)(C)C(=O)NCCc1cnc[nH]1)[C@@H](C)O)C(=O)O [AA10-AA9-AA8-AA7-AA6-AA5-OH] ({Malonyl(2,2-Me2,histaminyl)}-[Ala(1H-tetrazol-5-yl)]GT[αMePhe(2-F)]T-OH) | −1.23 | > 1000 |  |  |
| C[C@@H](O)[C@H](NC(=O)CNC(=O)[C@H](Cc1nn[nH]n1)NC(=O)C(C)(C)C(=O)NCCc1cnc[nH]1)C(=O)N[C@@](C)(Cc1ccccc1F)C(=O)O [AA10-AA9-AA8-AA7-AA6-OH] ({Malonyl(2,2-Me2,histaminyl)}-[Ala(1H-tetrazol-5-yl)]GT[αMePhe(2-F)]-OH) | −1.13 | > 1000 |  |  |
| C[C@@H](O)[C@H](NC(=O)CNC(=O)[C@H](Cc1nn[nH]n1)NC(=O)C(C)(C)C(=O)NCCc1cnc[nH]1)C(=O)O [AA10-AA9-AA8-AA7-OH] | −0.52 | > 1000 |  |  |
| CC(C)(C(=O)NCCc1cnc[nH]1)C(=O)N[C@@H](Cc1nn[nH]n1)C(=O)NCC(=O)O [AA10-AA9-AA8-OH] | −1.39 | > 1000 |  |  |
| CCc1cc(OCCCCN=[N+]=[N-])ccc1-c1ccc(C[C@H](NC(=O)[C@H](CC(=O)O)NC(=O)[C@H](CO)NC(=O)[C@@H](NC(=O)[C@](C)(Cc2ccccc2F)NC(=O)[C@@H](NC(=O)CNC(=O)[C@H](Cc2nn[nH]n2)NC(=O)C(C)(C)C(=O)NCCc2cnc[nH]2)[C@@H](C)O)[C@@H](C)O)C(=O)N[C@@H](CCCc2cc(C)cc(C)c2)C(N)=O)cc1 [M2361] ({Malonyl(2,2-Me2,histaminyl)}-[Ala(1H-tetrazol-5-yl)]GT[αMePhe(2-F)]TSD[Bip(2'-Et,4'-O(CH2)4N3)][Nva(5-(3,5-Me2Ph))]-NH2) |  |  | 0.359 |  |
| CCc1cc(OCCCCN=[N+]=[N-])ccc1-c1ccc(C[C@H](NC(=O)[C@H](CC(=O)O)NC(=O)[C@H](CO)NC(=O)[C@@H](NC(=O)[C@](C)(Cc2ccccc2F)NC(=O)[C@@H](NC(=O)CNC(=O)[C@H](Cc2nnn[nH]2)NC(=O)C(C)(C)C(=O)NCCc2cnc[nH]2)[C@@H](C)O)[C@@H](C)O)C(=O)N[C@@H](CCCc2cc(C)cc(C)c2)C(N)=O)cc1 [M2361] ({Malonyl(2,2-Me2,histaminyl)}-[Ala(1H-tetrazol-5-yl)]GT[αMePhe(2-F)]TSD[Bip(2'-Et,4'-O(CH2)4N3)][Nva(5-(3,5-Me2Ph))]-NH2) |  |  | 0.497 |  |
| CCc1cc(OCCCCN=[N+]=[N-])ccc1-c1ccc(C[C@H](NC(=O)[C@H](CC(=O)O)NC(=O)[C@H](CO)NC(=O)[C@@H](NC(=O)[C@](C)(Cc2ccccc2F)NC(=O)[C@@H](NC(=O)CNC(=O)[C@@H](N)Cc2nn[nH]n2)[C@@H](C)O)[C@@H](C)O)C(=O)N[C@@H](CCCc2cc(C)cc(C)c2)C(N)=O)cc1 [M2383] (H-[Ala(1H-tetrazol-5-yl)]GT[αMePhe(2-F)]TSD[Bip(2'-Et,4'-O(CH2)4N3)][Nva(5-(3,5-Me2Ph))]-NH2) |  |  | 280 |  |
| CCc1cc(OCCCCN)ccc1-c1ccc(C[C@H](NC(=O)[C@H](CC(=O)O)NC(=O)[C@H](CO)NC(=O)[C@@H](NC(=O)[C@](C)(Cc2ccccc2F)NC(=O)[C@@H](NC(=O)CNC(=O)[C@H](Cc2nnn[nH]2)NC(=O)C(C)(C)C(=O)NCCc2cnc[nH]2)[C@@H](C)O)[C@@H](C)O)C(=O)N[C@@H](CCCc2cc(C)cc(C)c2)C(N)=O)cc1 [M2642] ({Malonyl(2,2-Me2,histaminyl)}-[Ala(1H-tetrazol-5-yl)]GT[αMePhe(2-F)]TSD[Bip(2'-Et,4'-O(CH2)4NH2)][Nva(5-(3,5-Me2Ph))]-NH2) |  |  | 0.0502 |  |
| CCc1cc(OCCCCn2cc(COCCOCCOCCOCCOCCOCCOCCOCCN)nn2)ccc1-c1ccc(C[C@H](NC(=O)[C@H](CC(=O)O)NC(=O)[C@H](CO)NC(=O)[C@@H](NC(=O)[C@](C)(Cc2ccccc2F)NC(=O)[C@@H](NC(=O)CNC(=O)[C@@H](N)Cc2nnn[nH]2)[C@@H](C)O)[C@@H](C)O)C(=O)N[C@@H](CCCc2cc(C)cc(C)c2)C(N)=O)cc1 [M6295] (H-[Ala(1H-tetrazol-5-yl)]GT[αMePhe(2-F)]TSD[X1][Nva(5-(3,5-Me2Ph))]-NH2) |  |  | 351 |  |
| CCc1cc(OCCCCn2cc(COCCOCCOCCOCCOCCOCCOCCOCCNC(=O)CC[C@H](NC(=O)[C@H](CC(C)C)NC(=O)[C@@H](N)CC(C)C)C(=O)O)nn2)ccc1-c1ccc(C[C@H](NC(=O)[C@H](CC(=O)O)NC(=O)[C@H](CO)NC(=O)[C@@H](NC(=O)[C@](C)(Cc2ccccc2F)NC(=O)[C@@H](NC(=O)CNC(=O)[C@H](Cc2nnn[nH]2)NC(=O)C(C)(C)C(=O)NCCc2cnc[nH]2)[C@@H](C)O)[C@@H](C)O)C(=O)N[C@@H](CCCc2cc(C)cc(C)c2)C(N)=O)cc1 [M6296] ({Malonyl(2,2-Me2,histaminyl)}-[Ala(1H-tetrazol-5-yl)]GT[αMePhe(2-F)]TSD[X2]([γGlu-Leu-Leu])[Nva(5-(3,5-Me2Ph))]-NH2) |  |  | 1.19 |  |
| CCc1cc(OCCCCn2cc(COCCOCCOCCOCCOCCOCCOCCOCCNC(=O)CC[C@H](NC(=O)[C@H](CC(C)C)NC(=O)[C@@H](N)CC(C)C)C(=O)O)nn2)ccc1-c1ccc(C[C@H](NC(=O)[C@H](CC(=O)O)NC(=O)[C@H](CO)NC(=O)[C@@H](NC(=O)[C@](C)(Cc2ccccc2F)NC(=O)[C@@H](NC(=O)CNC(=O)[C@H](Cc2nnn[nH]2)NC(=O)C(C)(C)C(=O)NCCc2cnc[nH]2)[C@@H](C)O)[C@@H](C)O)C(=O)N[C@@H](CCCc2cc(C)cc(C)c2)C(=O)O)cc1 [M6297] ({Malonyl(2,2-Me2,histaminyl)}-[Ala(1H-tetrazol-5-yl)]GT[αMePhe(2-F)]TSD[X2]([γGlu-Leu-Leu])[Nva(5-(3,5-Me2Ph))]-OH) | 103.80 |  |  | EC50: 13.4 nM |
| CCc1cc(OCCCCN=[N+]=[N-])ccc1-c1ccc(C[C@H](NC(=O)[C@H](CC(=O)O)NC(=O)[C@H](CO)NC(=O)[C@@H](NC(=O)[C@](C)(Cc2ccccc2F)NC(=O)[C@@H](NC(=O)CNC(=O)[C@H](Cc2nn[nH]n2)NC(=O)C(C)(C)C(=O)NCCc2cnc[nH]2)[C@@H](C)O)[C@@H](C)O)C(=O)O)cc1 [M6320] |  |  |  | EC50 [3]: 51.2 nM |
| CCc1cc(OCCCCn2cc(COCCOCCOCCOCCOCCOCCOCCOCCNC(=O)CC[C@H](NC(=O)[C@H](CC(C)C)NC(=O)[C@@H](N)CC(C)C)C(=O)O)nn2)ccc1-c1ccc(C[C@H](NC(=O)[C@H](CC(=O)O)NC(=O)[C@H](CO)NC(=O)[C@@H](NC(=O)C(C)(Cc2ccccc2F)NC(=O)[C@@H](NC(=O)CNC(=O)[C@H](Cc2nn[nH]n2)NC(=O)C(C)(C)C(=O)NCCc2cnc[nH]2)[C@@H](C)O)[C@@H](C)O)C(=O)O)cc1 (stereo partly shown) [M6321] | 33.86 | > 1000 |  | EC50 [3]: > 1000 nM |
| CCc1cc(OCCCCn2cc(COCCOCCOCCOCCOCCOCCOCCOCCNC(=O)CC[C@H](N)C(=O)O)nn2)ccc1-c1ccc(C[C@H](NC(=O)[C@H](CC(=O)O)NC(=O)[C@H](CO)NC(=O)[C@@H](NC(=O)C(C)(Cc2ccccc2F)NC(=O)[C@@H](NC(=O)CNC(=O)[C@H](Cc2nn[nH]n2)NC(=O)C(C)(C)C(=O)NCCc2cnc[nH]2)[C@@H](C)O)[C@@H](C)O)C(=O)O)cc1 (stereo partly shown) [M6322] | 29.24 | > 1000 |  | EC50 [3]: > 1000 nM |
